A short description of data set [1]: Cytotoxicity in growing (rapidly dividing) HFF. The format is cell-based, human. The settings on record: human, growing hff cells.
In data set [2] the test system is HSV-1 (herpes simplex type 1). Kind of data set: microbe, parasite or virus in culture. As to conditions: for activity against HSV-1: in words. An excerpt:
(§1) Compounds 25 and 26 are (S)-methanocarba-T and (±)-(carba-T), respectively. (±)-carba-T was kindly provided by Dr. Y. Fulmer Shealy, Southern Research Institute, Birmingham, Ala. [drawing 5]

Data set [3] deals with HSV-2 (herpes simplex type 2). In words: microbe, parasite or virus in culture. The settings on record: for activity against HSV-2: in words.
Description: as §1

The subject of data set [4] is herpes viruses. Kind of data set: Antiherpetic activity, overall. The data set is classed as cell-based. As to conditions: in words.
Description: (§3) Antiviral testing of nucleoside analogs was performed on various herpes viruses. Two days prior to use, human foreskin fibroblasts (BFF) were trypsinized, counted, seeded onto six well plates and incubated at 37° C., 5% CO2, 90% relative humidity. Virus was diluted in Modified Eagle's Medium (MEM) containing 10% fetal bovine serum (FBS) at a desired concentration to give 20-30 plaques/well. Media was aspirated from the wells and 0.2 ml virus +0.2 ml media was added to each well in duplicate. Plates were incubated for 1 hour with shaking every 15 minutes. After the incubation, equal volumes of 1% agarose and the diluted nucleoside analog were combined and applied to each well in a 2 ml volume. The plates were incubated for three days and cells were stained with a 1.5% solution of neutral red. After 4-6 hours, the stain was aspirated and plaques were counted using a stereomicroscope at 10×magnification.
Data set [5] is described as follows: Cytotoxicity in host cells / stationary cells (HFF). The format is cell-based, human. The settings on record: human, hff cells. An excerpt: (§2) ^d CC50 = cytotoxic concentration in μg/mL that produces 50%
The test system of data set [6] is HCMV (human cytomegalovirus). Kind of data set: microbe, parasite or virus in culture. The format is cell-based. The settings on record: for EC50: HCMV; for activity against HCMV: in words.
Description: as §3
The test system of data set [7] is HCMV (human cytomegalovirus). Kind of data set: microbe, parasite or virus in culture. The data set is classed as cell-based. The settings on record: for EC50: Human betaherpesvirus 5, Table 5, HCMV, plaque reduction assay. An excerpt: | ^f plaque reduction assay.
In general terms: Plaques are areas of infected cells; plaque reduction assays count them against a control.

For data set [8], the system named is HFF (human foreskin fibroblasts). Kind of data set: Cytotoxicity in host cells / stationary cells (HFF). The data set is classed as cell-based. As to conditions: Table 5, host cell not given.
Description: as §2

In data set [9] the test system is EBV (Epstein-Barr virus). In words: microbe, parasite or virus in culture. The format is cell-based. As to conditions: for EC50: human gammaherpesvirus 4; for activity against EBV: in words.
Description: as §1

Data set [10] is described as follows: Cytotoxicity in EBV host cells (Daudi). The data set is classed as cell-based. The settings on record: human, Table 4, EBV line, host cell not given.
In data set [11] the test system is Growing HFF. Kind of data set: Cytotoxicity in growing (rapidly dividing) HFF. The data set is classed as cell-based, human. The settings on record: in words; rapidly proliferating vs stationary cells.
[12] abbreviates: rapidly dividing cells, read-out: CC50.
The mark [13] stands for this setting: Human alphaherpesvirus 1, Table 4, HSV-1, plaques reduced by 50%.
The mark [14] stands for this setting: Human alphaherpesvirus 2, Table 4, HSV-2, plaques reduced by 50%.
Where [15] appears, read: Table 4, HSV-1 and HSV-2 lines, host cell not given.
[16] abbreviates: Human alphaherpesvirus 1, Table 5, HSV-1.
[17] abbreviates: Human alphaherpesvirus 2, Table 5, HSV-2.
[18] abbreviates: Human betaherpesvirus 5, Table 5, read-out: EC50.

Values after ≈ are worked out from the molar mass of the structure shown. Values joined by “and” are separate entries in the source; they are usually repeats but may differ in a detail not shown here. Equal values may be shown once. Read-outs that look alike come from different tables or passages of the source.

Turning to `Cc1cn([C@@H]2C[C@H](CO)[C@@H](O)C2)c(=O)[nH]c1=O` (relative stereo) [Compound 26, (±)-(carba-T), reference compound], the values for the CC50 in data set [1] (setting [12]), in data set [5] (setting [15]) and in data set [5] (stationary cells) were 0.65 µg/mL (≈ 2.71 µM), more than 10 µg/mL and more than 100 µg/mL, respectively. For the same compound, the “SI (CC50/EC50)” value in data set [2] and in data set [3] was 1 throughout. In addition, the concentration for a half-maximal effect (EC50) in data set [2] (setting [13]) and in data set [3] (setting [14]) was more than 10 µg/mL throughout. In data set [4], the antiherpetic activity entry is given as “did not exhibit antiherpetic activity”.
Consider `Nc1ncnc2c1ncn2[C@@]12C[C@H](O)[C@@H](CO)[C@@H]1C2` [(S)-DMC-A, reference compound], for which the “SI (CC50/EC50)” value in data set [2] is given as 1; in data set [3], 1; in data set [6], more than 15.6; in data set [7] (human foreskin fibroblasts) it was more than 41.7. Besides, the EC50 in data set [2] (setting [16]) is more than 100 µg/mL; in data set [3] (setting [17]), more than 100 µg/mL; in data set [6] (setting [18]), 6.4 µg/mL (≈ 24.5 µM); in [7] (read-out: EC50), 2.4 µg/mL (≈ 9.19 µM). Also, the “activity against HCMV” value in data set [6] is reported as “active against HCMV”. The same compound registered a CC50 in [5] (Table 5, host cell not given) of more than 100 µg/mL.
For `Nc1ccn([C@@]23C[C@H](O)[C@@H](CO)[C@@H]2C3)c(=O)n1` [(S)-DMC-C, reference compound], the results for the “SI (CC50/EC50)” value in data set [2], in [3] and in data set [6] were less than 3.7, less than 3.7 and more than 1.1, respectively. The 50% effective concentration (EC50) in data set [2] (setting [16]) was more than 4 µg/mL; in data set [3] (setting [17]) it was more than 4 µg/mL; in [6] (setting [18]), 88.9 µg/mL (≈ 375 µM).
Turning to `Nc1nc2c(ncn2[C@@]23C[C@H](O)[C@@H](CO)[C@@H]2C3)c(=O)[nH]1` [(S)-DMC-G, reference compound], the “SI (CC50/EC50)” value in data set [2] is recorded as less than 3.7; in data set [3], less than 3.7; in data set [6], less than 2.3. The concentration for a half-maximal effect (EC50) in [2] (setting [16]), in data set [3] (setting [17]) and in data set [6] (setting [18]) was more than 20 µg/mL each time.
As to `O=c1ccn([C@@]23C[C@H](O)[C@@H](CO)[C@@H]2C3)c(=O)[nH]1` [(S)-DMC-U, reference compound], the “SI (CC50/EC50)” value is listed as less than 3.0 in [2], less than 3.0 in data set [3] and 1 in [6]. Moreover, the EC50 in data set [2] (setting [16]) is more than 20 µg/mL; in data set [3] (setting [17]), more than 20 µg/mL; in data set [6] (setting [18]), more than 100 µg/mL. The CC50 in data set [8] was more than 100 µg/mL; in data set [5] (Table 5, host cell not given), 59.1 µg/mL (≈ 248 µM).
On to `Nc1nc2c(ncn2COCCO)c(=O)[nH]1` [ACV, acyclovir, reference compound], for which the CC50 in [1] (Table 3, no virus, Growing HFF, positive control, read-out: Positive Control EC50 (line Growing HFF)) turned out to be 40 µg/mL (≈ 178 µM). Further, the EC50 came out at 0.1 µg/mL (≈ 0.444 µM) in data set [9] (Table 3, EBV, Daudi, positive control, read-out: Positive Control EC50); 0.1 µg/mL (≈ 0.444 µM) in [9] (Table 4, EBV, acyclovir control, read-out: ACV (EC50)); 0.3 µg/mL (≈ 1.33 µM) in data set [2] (Human alphaherpesvirus 1, read-out: ACV (EC50), Table 4, HSV-1, acyclovir control); 0.8 µg/mL (≈ 3.55 µM) in data set [2] (Human alphaherpesvirus 1, read-out: Positive Control EC50, Table 3, HSV-1, HFF, positive control); 0.8 µg/mL (≈ 3.55 µM) in data set [3] (Human alphaherpesvirus 2, read-out: ACV (EC50), Table 4, HSV-2, acyclovir control); 4 µg/mL (≈ 17.8 µM) in data set [3] (Human alphaherpesvirus 2, read-out: Positive Control EC50, Table 3, HSV-2, HFF, positive control). The “ACV (EC50)” value in [2] (Table 4, HSV-1, acyclovir control) amounted to 0.15 µg/mL; in data set [3] (Table 4, HSV-2, acyclovir control), 0.60 µg/mL. Further, the “Control EC50” value was 0.20 µg/mL in data set [2] (Table 5, HSV-1, control); 1.8 µg/mL and 1.5 µg/mL in data set [3] (Table 5, HSV-2, control).
Consider `Cc1cn([C@H]2C[C@H](O)[C@]3(CO)C[C@H]23)c(=O)[nH]c1=O` [Compound 20], for which the CC50 in data set [1] (setting [12]) was 32.9 µg/mL (≈ 130 µM); in data set [5] (setting [15]), more than 20 µg/mL; in data set [5] (stationary cells), more than 100 µg/mL; in data set [10], more than 100 µg/mL. Moreover, the “SI (CC50/EC50)” value in data set [9] is listed as more than 222; in data set [2], more than 2000; in [3], more than 167. Besides, in data set [9] (EBV), the “anti-EBV activity relative to acyclovir” value is recorded as “not as strong as ACV”. Also, the EC50 in [9] (Table 4, EBV, read-out: EC50) is 0.45 µg/mL (≈ 1.78 µM); in data set [2] (setting [13]) it was 0.01 µg/mL (≈ 0.0396 µM); in data set [3] (setting [14]), 0.12 µg/mL (≈ 0.476 µM). The “activity against EBV” value in data set [9] is “significant anti-EBV activity”; in [9] (listed as N-methanocarba-T), “effective against HSV-1, HSV-2 and EBV”. Moreover, the “activity against HSV-1” value in data set [2] is “strong activity”; in [2] (listed as N-methanocarba-T) it was “effective against HSV-1, HSV-2 and EBV”. The “activity against HSV-2” value in data set [3] was “strong activity”; in [3] (listed as N-methanocarba-T), “effective against HSV-1, HSV-2 and EBV”. Also, the “activity relative to acyclovir” value in [4] (HSV-1 and HSV-2) was “stronger than observed with acyclovir”.
For the compound `O=c1ccn([C@H]2C[C@H](O)[C@]3(CO)C[C@H]23)c(=O)[nH]1` [Compound 21, (1R,2S,4S,5S)-1-(Hydroxymethyl)-2-hydroxy-4-(2,4-(1H,3H)-dioxopvrimidin-1-yl)bicyclor3.1.Olhexane], the “SI (CC50/EC50)” value in [2], in data set [3] and in data set [6] was 1 in each case. The 50% effective concentration (EC50) in [2] (setting [16]), in data set [3] (setting [17]) and in data set [6] (setting [18]) was more than 100 µg/mL throughout. Moreover, the “activity against HSV-1” value in data set [2] was “inactive against all three viruses”. Besides, the “activity against HSV-2” value in data set [3] is “inactive against all three viruses”. Further, the “activity against HCMV” value in data set [6] was “inactive against all three viruses”. In addition, the CC50 in data set [5] (Table 5, host cell not given) was more than 100 µg/mL.
For the compound `Nc1ccn([C@H]2C[C@H](O)[C@]3(CO)C[C@H]23)c(=O)n1` [Compound 22], the “SI (CC50/EC50)” value in data set [2] was 486; in data set [3] it was less than 4.8; in data set [6] it was less than 2.2. Moreover, the half-maximal effective concentration (EC50) in data set [2] (setting [16]) was 0.14 µg/mL (≈ 0.59 µM); in data set [3] (setting [17]), more than 20 µg/mL; in [6] (setting [18]), more than 4 µg/mL. In addition, in data set [2], the “activity against HSV-1” value is “very active against HSV-1”. In addition, the “activity against HSV-2” value in [3] is listed as “Little activity”. The “activity against HCMV” value in data set [6] is on record as “active against HCMV”.
`Nc1nc2c(ncn2[C@H]2C[C@H](O)[C@]3(CO)C[C@H]23)c(=O)[nH]1` [Compound 24]: the “SI (CC50/EC50)” value in [2] was more than 25; in data set [3] it was more than 10.1; in data set [6], less than 3.2. For the same compound, the EC50 in data set [2] (setting [16]) was 4 µg/mL (≈ 14.4 µM); in data set [3] (setting [17]), 9.9 µg/mL (≈ 35.7 µM); in data set [6] (setting [18]) it was more than 20 µg/mL. Moreover, in data set [2], the “activity against HSV-1” value was “active against HSV-1 and HSV-2”. The “activity against HSV-2” value in data set [3] was “active against HSV-1 and HSV-2”. Moreover, in data set [6], the “activity against HCMV” value is listed as “little activity against HCMV”. Besides, the CC50 was 64.3 µg/mL (≈ 232 µM) in data set [8] (listed as (N)-DMC-G) and more than 100 µg/mL in data set [5] (Table 5, host cell not given).
As for `Cc1cn([C@@]23C[C@H](O)[C@@H](CO)[C@@H]2C3)c(=O)[nH]c1=O` [Compound 25, (S)-methanocarba-T, reference compound], the CC50 in data set [1] (setting [12]) and in data set [5] (stationary cells) was more than 100 µg/mL in each case. Further, the “SI (CC50/EC50)” value in data set [2] and in data set [3] was 1 throughout. Also, the antiherpetic activity result in data set [4] is on record as “did not exhibit antiherpetic activity”.
Regarding `Nc1nc(O)c2ncn(COC(CO)CO)c2n1` [GCV, gancyclovir], in data set [11], the “cytotoxicity to rapidly dividing cells” value is on record as “increased cytotoxicity towards rapidly dividing cells”. In addition, the CC50 in data set [1] (setting [12]) stood at 40 µg/mL (≈ 157 µM). In addition, the EC50 in data set [6] (Human betaherpesvirus 5, Table 3, HFF, positive control, read-out: Positive Control EC50) is 0.3 µg/mL (≈ 1.18 µM); in data set [7] (control, read-out: Control EC50) it was 0.2 µg/mL (≈ 0.784 µM).

The EC50 is the concentration giving half of the maximal effect.
